Measurements: ChEMBL document CHEMBL5046249, “Synthesis, biological evaluation and cellular localization study of fluorescent derivatives of Jiyuan Oridonin A” (Eur J Med Chem, 2022)

Assays:
PC-3 = assay: Antiproliferative activity against human PC-3 cells assessed as inhibition of cell growth measured after 72 hrs by SRB assay; format: functional, cell-based; conditions: PC-3, 72 h
HGC-27 = assay: Antiproliferative activity against human HGC-27 cells assessed as inhibition of cell growth measured after 72 hrs by SRB assay; format: functional, cell-based; conditions: HGC-27, 72 h
[1] = Drug uptake in human HGC-27 cells assessed as increase in fluorescence intensity of green signal at 8 uM measured after 1 hr by fluorescence microscopic analysis; format: ADME, cell-based; conditions: hgc-27, 1 h
SW1990 = assay: Antiproliferative activity against human SW1990 cells assessed as inhibition of cell growth measured after 72 hrs by SRB assay; format: functional, cell-based; conditions: SW1990, 72 h
TE-1 = assay: Antiproliferative activity against human TE-1 cells assessed as inhibition of cell growth measured after 72 hrs by SRB assay; format: functional, cell-based; conditions: TE-1, 72 h
MGC-803 = assay: Antiproliferative activity against human MGC-803 cells assessed as inhibition of cell growth measured after 72 hrs by SRB assay; format: functional, cell-based; conditions: MGC-803, 72 h

| SMILES | IC50 (PC-3) [nM] | Drug uptake [1] | IC50 (SW1990) [nM] | IC50 (MGC-803) [nM] | IC50 (HGC-27) [nM] | IC50 (TE-1) [nM] |
| --- | --- | --- | --- | --- | --- | --- |
| O=C1c2cccc3c(N4CCCCC4)ccc(c23)C(=O)N1CCOCCOCCOCCn1cc(CCCO)nn1 | > 32000 | Not Active | > 32000 | > 32000 | > 32000 | > 32000 |
| C=C1C(=O)[C@]23[C@H](O)[C@H]1C[C@H](O)[C@H]2[C@]12CCCC(C)(C)[C@H]1C[C@H]3O[C@H]2O | 8430 | Not Active | 7360 | 7190 | 4980 | 8820 |
| C=C1C(=O)[C@]23[C@H](O)[C@H]1C[C@H](O)[C@H]2[C@]12CCCC(C)(C)[C@H]1C[C@H]3O[C@H]2OCCCCCCc1cn(CCOCCOCCOCCN2C(=O)c3cccc4c(N5CCCCC5)ccc(c34)C2=O)nn1 | 1270 | – | 2640 | 3870 | 1440 | 3080 |
| C#CCCCO[C@@H]1O[C@@H]2C[C@@H]3C(C)(C)CCC[C@]13[C@@H]1[C@@H](O)C[C@H]3C(=C)C(=O)[C@@]21[C@@H]3O | 5370 | – | 3220 | 2460 | 2680 | 4230 |
| C=C1C(=O)[C@]23[C@H](O)[C@H]1C[C@H](O)[C@H]2[C@]12CCCC(C)(C)[C@H]1C[C@H]3O[C@H]2OCCCCCCc1cn(CCCCCN2C(=O)c3cccc4c(N5CCCCC5)ccc(c34)C2=O)nn1 | 3890 | – | 4590 | 4180 | 2280 | 3450 |
| C=C1C(=O)[C@]23[C@H](O)[C@H]1C[C@H](O)[C@H]2[C@]12CCCC(C)(C)[C@H]1C[C@H]3O[C@H]2OCCCc1cn(CCCN2C(=O)c3cccc4c(N5CCCCC5)ccc(c34)C2=O)nn1 | 1240 | – | 1130 | 1320 | 4110 | 3540 |
| C=C1C(=O)[C@]23[C@H](O)[C@H]1C[C@H](O)[C@H]2[C@]12CCCC(C)(C)[C@H]1C[C@H]3O[C@H]2OCCCCCc1cn(CCCCN2C(=O)c3cccc4c(N5CCCCC5)ccc(c34)C2=O)nn1 | 1340 | – | 4650 | 2720 | 3010 | 5130 |
| [N-]=[N+]=NCCN1C(=O)c2cccc3c(N4CCCCC4)ccc(c23)C1=O | > 32000 | – | > 32000 | > 32000 | > 32000 | > 32000 |
| C=C1C(=O)[C@]23[C@H](O)[C@H]1C[C@H](O)[C@H]2[C@]12CCCC(C)(C)[C@H]1C[C@H]3O[C@H]2OCCc1cn(CCN2C(=O)c3cccc4c(N5CCCCC5)ccc(c34)C2=O)nn1 | 2500 | – | 880 | 960 | 2640 | 3340 |
| C=C1C(=O)[C@]23[C@H](O)[C@H]1C[C@H](O)[C@H]2[C@]12CCCC(C)(C)[C@H]1C[C@H]3O[C@H]2OCCCc1cn(CCOCCOCCN2C(=O)c3cccc4c(N5CCCCC5)ccc(c34)C2=O)nn1 | 2170 | – | 1940 | 3450 | 1250 | 3020 |
| C#CCCCCO[C@@H]1O[C@@H]2C[C@@H]3C(C)(C)CCC[C@]13[C@@H]1[C@@H](O)C[C@H]3C(=C)C(=O)[C@@]21[C@@H]3O | 4320 | – | 3340 | 2550 | 3000 | 5670 |
| C=C1C(=O)[C@]23[C@H](O)[C@H]1C[C@H](O)[C@H]2[C@]12CCCC(C)(C)[C@H]1C[C@H]3O[C@H]2OCCCCCCc1cn(CCCCN2C(=O)c3cccc4c(N5CCCCC5)ccc(c34)C2=O)nn1 | 6160 | – | 4520 | 4590 | 2290 | 8820 |
| C=C1C(=O)[C@]23[C@H](O)[C@H]1C[C@H](O)[C@H]2[C@]12CCCC(C)(C)[C@H]1C[C@H]3O[C@H]2OCCCCc1cn(CCOCCN2C(=O)c3cccc4c(N5CCCCC5)ccc(c34)C2=O)nn1 | 1240 | – | 2250 | 3210 | 1950 | 2700 |
| [N-]=[N+]=NCCCCCCN1C(=O)c2cccc3c(N4CCCCC4)ccc(c23)C1=O | > 32000 | – | > 32000 | > 32000 | > 32000 | > 32000 |

The next lines start with results.

| IC50 (PC-3) [nM] | Drug uptake [1] | IC50 (SW1990) [nM] | IC50 (MGC-803) [nM] | SMILES | IC50 (HGC-27) [nM] | IC50 (TE-1) [nM] |
| --- | --- | --- | --- | --- | --- | --- |
| 930 | – | 1560 | 2650 | C=C1C(=O)[C@]23[C@H](O)[C@H]1C[C@H](O)[C@H]2[C@]12CCCC(C)(C)[C@H]1C[C@H]3O[C@H]2OCCc1cn(CCOCCOCCOCCN2C(=O)c3cccc4c(N5CCCCC5)ccc(c34)C2=O)nn1 | 5260 | 1870 |
| 800 | – | 970 | 1970 | C=C1C(=O)[C@]23[C@H](O)[C@H]1C[C@H](O)[C@H]2[C@]12CCCC(C)(C)[C@H]1C[C@H]3O[C@H]2OCCc1cn(CCCN2C(=O)c3cccc4c(N5CCCCC5)ccc(c34)C2=O)nn1 | 2290 | 3040 |
| 970 | – | 2820 | 3010 | C=C1C(=O)[C@]23[C@H](O)[C@H]1C[C@H](O)[C@H]2[C@]12CCCC(C)(C)[C@H]1C[C@H]3O[C@H]2OCCCCCCc1cn(CCOCCOCCN2C(=O)c3cccc4c(N5CCCCC5)ccc(c34)C2=O)nn1 | 1880 | 1530 |
| 470 | – | 1360 | 1230 | C=C1C(=O)[C@]23[C@H](O)[C@H]1C[C@H](O)[C@H]2[C@]12CCCC(C)(C)[C@H]1C[C@H]3O[C@H]2OCCCc1cn(CCN2C(=O)c3cccc4c(N5CCCCC5)ccc(c34)C2=O)nn1 | 2970 | 4800 |
| 740 | – | 1610 | 1510 | C=C1C(=O)[C@]23[C@H](O)[C@H]1C[C@H](O)[C@H]2[C@]12CCCC(C)(C)[C@H]1C[C@H]3O[C@H]2OCCc1cn(CCCCN2C(=O)c3cccc4c(N5CCCCC5)ccc(c34)C2=O)nn1 | 1610 | 4890 |
| 1210 | – | 2150 | 2640 | C=C1C(=O)[C@]23[C@H](O)[C@H]1C[C@H](O)[C@H]2[C@]12CCCC(C)(C)[C@H]1C[C@H]3O[C@H]2OCCCCCc1cn(CCOCCOCCN2C(=O)c3cccc4c(N5CCCCC5)ccc(c34)C2=O)nn1 | 1800 | 1860 |
| 790 | – | 1410 | 1570 | C=C1C(=O)[C@]23[C@H](O)[C@H]1C[C@H](O)[C@H]2[C@]12CCCC(C)(C)[C@H]1C[C@H]3O[C@H]2OCCc1cn(CCCCCCN2C(=O)c3cccc4c(N5CCCCC5)ccc(c34)C2=O)nn1 | 3090 | 4450 |
| 1040 | – | 4350 | 3130 | C=C1C(=O)[C@]23[C@H](O)[C@H]1C[C@H](O)[C@H]2[C@]12CCCC(C)(C)[C@H]1C[C@H]3O[C@H]2OCCCCc1cn(CCOCCOCCOCCN2C(=O)c3cccc4c(N5CCCCC5)ccc(c34)C2=O)nn1 | 2490 | 2430 |
| 910 | – | 860 | 1690 | C=C1C(=O)[C@]23[C@H](O)[C@H]1C[C@H](O)[C@H]2[C@]12CCCC(C)(C)[C@H]1C[C@H]3O[C@H]2OCCCCc1cn(CCCCN2C(=O)c3cccc4c(N5CCCCC5)ccc(c34)C2=O)nn1 | 1820 | 3890 |
| 780 | – | 2790 | 2440 | C=C1C(=O)[C@]23[C@H](O)[C@H]1C[C@H](O)[C@H]2[C@]12CCCC(C)(C)[C@H]1C[C@H]3O[C@H]2OCCCCCc1cn(CCCCCN2C(=O)c3cccc4c(N5CCCCC5)ccc(c34)C2=O)nn1 | 1670 | 4670 |
